This note sets out measurements from PMC9609273 (Pharmaceuticals, 2022).

≈ marks a conversion by molar mass, not a printed value. Read-outs that look alike come from different tables or passages of the source.

One data set deals with Mtb H37Rv. Briefly: microbe, parasite or virus in culture. The data set is classed as cell-based, Mycobacterium tuberculosis.
Data set [1] concerns Normal Lung Fibroblasts (IMR-90). The data set is classed as cell-based, human. The following applies: read-out: Toxicity IC50 IMR-90.
The subject of data set [2] is Human non-tumorigenic lung epithelial cells (BEAS-2B). It is filed as cell-based. The following applies: read-out: Toxicity IC50 BEAS-2B.
Data set [3] has as its system Human Embryonic Kidney cells (HEK 293). The following applies: for IC50: read-out: Toxicity IC50 HEK293.
For data set [4] the following is noted: 6.0 × 10^–5 M in DMSO and 28% ethanol-water, 24 h, 25 °C.
Where [5] appears, read: MABA, Mtb H37Rv, one week at 37 °C.

Regarding “3-((2-Isonicotinoylhydrazono)methyl)phenyl 2,4,6-trimethylbenzenesulfonate [SIH3]”, the MIC in the data set on Mtb H37Rv (setting [5]) was 0.62 µM. The IC50 (usually the concentration at which inhibition is half-maximal) in data set [1] (MTT, 48 h, triplicate) was above 100 µM; in data set [2] (MTT, 48 h, triplicate), above 100 µM; in data set [3] (MTT, 48 h, triplicate), 100 µM.

“3-((2-Isonicotinoylhydrazono)methyl)phenyl 2,5-dichlorobenzenesulfonate [SIH8]” had an MIC against Mtb H37Rv (setting [5]) of 0.62 µM. Moreover, the IC50 was 100 µM in data set [1] (MTT, 48 h, triplicate); above 100 µM in data set [2] (MTT, 48 h, triplicate); above 100 µM in data set [3] (MTT, 48 h, triplicate).

On to “3-((2-Isonicotinoylhydrazono)methyl)phenyl 3-nitrobenzenesulfonate [SIH10]”, for which the MIC with Mtb H37Rv (setting [5]) came out at 0.62 µM. Moreover, the IC50 in data set [1] (MTT, 48 h, triplicate) was above 100 µM; in data set [2] (MTT, 48 h, triplicate), above 100 µM; in data set [3] (MTT, 48 h, triplicate) it was above 100 µM.

The compound “3-((2-Isonicotinoylhydrazono)methyl)phenyl 4-(tert-butyl)benzenesulfonate [SIH2]” displayed an MIC in the data set with Mtb H37Rv (setting [5]) of 0.62 µM. Also, the IC50 in data set [1] (MTT, 48 h, triplicate) was 89.5 µM; in data set [2] (MTT, 48 h, triplicate), above 100 µM; in data set [3] (MTT, 48 h, triplicate) it was above 100 µM.

As for “3-((2-Isonicotinoylhydrazono)methyl)phenyl 4-acetamidobenzenesulfonate [SIH11]”, the MIC against Mtb H37Rv (setting [5]) is on record as 0.62 µM. Further, the IC50 in data set [1] (MTT, 48 h, triplicate) is above 100 µM; in data set [2] (MTT, 48 h, triplicate), above 100 µM; in data set [3] (MTT, 48 h, triplicate), above 100 µM.

In turn, “3-((2-Isonicotinoylhydrazono)methyl)phenyl 4-bromobenzenesulfonate [SIH5]” came in with an MIC in the data set with Mtb H37Rv (setting [5]) of 0.62 µM. The IC50 was 90.3 µM in data set [1] (MTT, 48 h, triplicate); above 100 µM in data set [2] (MTT, 48 h, triplicate); 100 µM in data set [3] (MTT, 48 h, triplicate).

For “3-((2-Isonicotinoylhydrazono)methyl)phenyl 4-chlorobenzenesulfonate [SIH6]”, the MIC in the data set on Mtb H37Rv (setting [5]) is 0.62 µM. In addition, the IC50 in data set [1] (MTT, 48 h, triplicate) is above 100 µM; in data set [2] (MTT, 48 h, triplicate), above 100 µM; in data set [3] (MTT, 48 h, triplicate) it was above 100 µM.

Regarding “3-((2-Isonicotinoylhydrazono)methyl)phenyl 4-iodobenzenesulfonate [SIH7]”, the MIC against Mtb H37Rv (setting [5]) stood at 0.62 µM. Moreover, the IC50 is 100 µM in data set [1] (MTT, 48 h, triplicate); above 100 µM in data set [2] (MTT, 48 h, triplicate); above 100 µM in data set [3] (MTT, 48 h, triplicate).

In the data set with Mtb H37Rv (setting [5]), “3-((2-Isonicotinoylhydrazono)methyl)phenyl 4-methoxybenzenesulfonate [SIH4]” displayed an MIC of 0.31 µM. Also, the IC50 in data set [1] (MTT, 48 h, triplicate) is above 100 µM; in data set [2] (MTT, 48 h, triplicate), above 100 µM; in data set [3] (MTT, 48 h, triplicate), 40.8 µM. Also, in data set [3] (MTT), the “Cytotoxicity against HEK293 (in words)” value was “moderately toxic”. In addition, the “Change in λmax values (stability of hydrazone)” value (shortened to “Change in λmax values”) in data set [4] is “no significant change in λmax values”.

In the case of “3-((2-Isonicotinoylhydrazono)methyl)phenyl 4-methylbenzenesulfonate [SIH1]”, the MIC with Mtb H37Rv (setting [5]) came out at 0.31 µM. Further, the IC50 in data set [1] (MTT, 48 h, triplicate) is above 100 µM; in data set [2] (MTT, 48 h, triplicate), above 100 µM; in data set [3] (MTT, 48 h, triplicate) it was 57.2 µM. Moreover, the “Cytotoxicity against HEK293 (in words)” value in data set [3] (MTT) is listed as “moderately toxic”. Further, the “Change in λmax values” value in data set [4] is “no significant change in λmax values”.

For “3-((2-Isonicotinoylhydrazono)methyl)phenyl 4-nitrobenzenesulfonate [SIH9]”, the MIC in the data set on Mtb H37Rv (setting [5]) was found to be 0.62 µM. In addition, the IC50 in data set [1] (MTT, 48 h, triplicate) was above 100 µM; in data set [2] (MTT, 48 h, triplicate), above 100 µM; in data set [3] (MTT, 48 h, triplicate), 100 µM.

For “3-((2-Isonicotinoylhydrazono)methyl)phenyl [1,1′-biphenyl]-4-sulfonate [SIH12]”, the MIC against Mtb H37Rv (setting [5]) is 0.31 µM. Besides, the IC50 in data set [1] (MTT, 48 h, triplicate) was 57.7 µM; in data set [2] (MTT, 48 h, triplicate), above 100 µM; in data set [3] (MTT, 48 h, triplicate) it was 52.4 µM. The “Cytotoxicity against HEK293 (in words)” value in data set [3] (MTT) is reported as “moderately toxic”. Besides, the “Change in λmax values” value in data set [4] is recorded as “no significant change in λmax values”.

In the data set on Mtb H37Rv, “3-((2-Isonicotinoylhydrazono)methyl)phenyl quinoline-8-sulfonate [SIH13]” came in with an MIC of 0.31 µM. Moreover, the IC50 was 100 µM in data set [1], above 100 µM in data set [2] and 58.3 µM in data set [3].

`NNC(=O)c1ccncc1` [Isoniazid, isonicotinic acid hydrazide, reference compound] came in with an MIC against Mtb H37Rv (Mycobacterium tuberculosis, 168 h, MABA, Mtb H37Rv, one week at 37 °C) of 0.31 µM (≈ 0.0425 µg/mL).
